Experiments:
Assay type in all cases: in vivo
[1] = system: Yellow Fever Mosquito (Aedes aegypti); settings: 4000 ppm master plate solution diluted, about 1 day-old larvae, scored on mortality after 3 days
Description: Master plates containing 400 μg of a molecule dissolved in 100 μL of dimethyl sulfoxide (DMSO) (equivalent to a 4000 ppm solution) are used. A master plate of assembled molecules contains 15 μL per well. To this plate, 135 μL of a 90:10 water:acetone mixture is added to each well. A robot (Biomek® NXP Laboratory Automation Workstation) is programmed to dispense 15 μL aspirations from the master plate into an empty 96-well shallow plate (“daughter” plate). There are 6 reps (“daughter” plates) created per master. The created daughter plates are then immediately infested with YFM larvae.
The day before plates are to be treated, mosquito eggs are placed in Millipore water containing liver powder to begin hatching (4 g. into 400 mL). After the daughter plates are created using the robot, they are infested with 220 μL of the liver powder/larval mosquito mixture (about 1 day-old larvae). After plates are infested with mosquito larvae, a non-evaporative lid is used to cover the plate to reduce drying. Plates are held at room temperature for 3 days prior to grading. After 3 days, each well is observed and scored based on mortality. The results are indicated in the table entitled “Table ABC: Biological Results” (See Table Section).

[2] = system: Beet Armyworm (Spodoptera exigua); experiment: Bioassay on Beet Armyworm (BAW), 128-well diet tray assay; settings: 50 μg/cm^2 on artificial diet, second instar larvae, five to seven days, 25° C.
Description: Bioassays on BAW were conducted using a 128-well diet tray assay. One to five second instar BAW larvae were placed in each well (3 mL) of the diet tray that had been previously filled with 1 mL of artificial diet to which 50 μg/cm^2 of the test molecule (dissolved in 50 μL of 90:10 acetone-water mixture) had been applied (to each of eight wells) and then allowed to dry. Trays were covered with a clear self-adhesive cover and held at 25° C., 14:10 light-dark for five to seven days. Percent mortality was recorded for the larvae in each well; activity in the eight wells was then averaged. The results are indicated in the table entitled “Table ABC: Biological Results” (See Table Section).
(§1) Bioassays on BAW and CL were conducted according to the procedures outlined in Example A: Bioassays on Beet Armyworm (“BAW”) and Cabbage Looper (“CL”) using the indicated concentrations.

[3] = system: Cabbage Looper (Trichoplusia ni); experiment: Bioassay on Cabbage Looper (CL), 128-well diet tray assay; settings: 50 μg/cm^2 on artificial diet, second instar larvae, five to seven days, 25° C.
Description: Bioassays on CL were conducted using a 128-well diet tray assay. One to five second instar CL larvae were placed in each well (3 mL) of the diet tray that had been previously filled with 1 mL of artificial diet to which 50 μg/cm^2 of the test molecule (dissolved in 50 μL of 90:10 acetone-water mixture) had been applied (to each of eight wells) and then allowed to dry. Trays were covered with a clear self-adhesive cover and held at 25° C., 14:10 light-dark for five to seven days. Percent mortality was recorded for the larvae in each well; activity in the eight wells was then averaged. The results are indicated in the table entitled “Table ABC: Biological Results” (See Table Section).
as §1

[4] = system: Green Peach Aphid (Myzus persicae); experiment: Bioassay on Green Peach Aphid (GPA), foliar spray on cabbage seedlings; settings: 200 ppm spray on cabbage seedlings, graded after three days, Abbott corrected % control
Description: Cabbage seedlings grown in 3-inch pots, with 2-3 small (3-5 cm) true leaves, were used as test substrate. The seedlings were infested with 20-50 GPA (wingless adult and nymph stages) one day prior to chemical application. Four pots with individual seedlings were used for each treatment. Test molecules (2 mg) were dissolved in 2 mL of acetone/methanol (1:1) solvent, forming stock solutions of 1000 ppm test molecule. The stock solutions were diluted 5× with 0.025% Tween 20 in water to obtain the solution at 200 ppm test molecule. A hand-held aspirator-type sprayer was used for spraying a solution to both sides of […] leaves until runoff. Reference plants (solvent check) were sprayed with the diluent only containing 20% by volume of acetone/methanol (1:1) solvent. Treated plants were held in a holding room for three days at approximately 25° C. and ambient relative humidity (RH) prior to grading. Evaluation was conducted by counting the number of live aphids per plant under a microscope. Percent Control was measured by using Abbott's correction formula (W. S. Abbott, “A Method of Computing the Effectiveness of an Insecticide” J. Econ. Entomol. 18 (1925), pp. 265-267) as follows. Corrected % Control=100*(X−Y)/X • where • X=No. of live aphids on solvent check plants and • Y=No. of live aphids on treated plants

CN(NC(=O)c1ccc(/C(F)=C/C(c2ccc(Cl)c(Br)c2)C(F)(F)F)cc1C(F)(F)F)C(=O)NCC(F)(F)F (stereo not shown) [PF8]
YFM % Control (or Mortality) rating [1]: A (80-100) | BAW % Control (or Mortality) rating [2]: A (50-100) | CL % Control (or Mortality) rating [3]: A (50-100) | GPA % Control (or Mortality) rating [4]: B (More than 0-Less than 80)

Reference: patent US9930892B2, “Molecules having pesticidal utility, and intermediates, compositions, and processes, related thereto” (Dow AgroSciences LLC, priority 2016, dated 2018)
